Test results reported in ChEMBL document CHEMBL3525990, “Organic anion transporter 3 interacts selectively with lipophilic β-lactam antibiotics” (Drug Metab Dispos, 2013).

Assays:
[1] = molecular target: T1, Organic anion transporter 3 (Homo sapiens, UniProt Q8TCC7); assay: (§1) Inhibition of human OAT3 expressed in CHO cells assessed as inhibition of fluorescein uptake at 500 uM over 20 mins relative to untreated-control; assay type: ADME, cell-based; conditions: cho, 20 min, 500 µM
T1 sequence (Q8TCC7 whole entry): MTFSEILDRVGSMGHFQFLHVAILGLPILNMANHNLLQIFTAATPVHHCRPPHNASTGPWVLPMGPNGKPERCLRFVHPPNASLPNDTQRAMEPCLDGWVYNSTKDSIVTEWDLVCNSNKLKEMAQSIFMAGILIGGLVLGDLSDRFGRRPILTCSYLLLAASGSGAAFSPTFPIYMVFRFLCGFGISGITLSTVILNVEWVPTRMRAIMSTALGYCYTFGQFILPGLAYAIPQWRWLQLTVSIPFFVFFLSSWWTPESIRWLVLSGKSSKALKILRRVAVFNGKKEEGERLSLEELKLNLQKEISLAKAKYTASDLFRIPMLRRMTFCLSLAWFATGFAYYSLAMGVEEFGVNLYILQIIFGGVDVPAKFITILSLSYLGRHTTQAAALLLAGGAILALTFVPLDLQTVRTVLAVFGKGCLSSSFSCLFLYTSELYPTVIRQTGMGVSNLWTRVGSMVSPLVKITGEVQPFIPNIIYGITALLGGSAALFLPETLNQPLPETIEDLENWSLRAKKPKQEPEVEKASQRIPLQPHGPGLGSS

[2] = molecular target: T2, Solute carrier family 22 member 6 (Mus musculus, UniProt Q8VC69); assay: Inhibition of mouse OAT1 expressed in CHO cells assessed as inhibition of fluorescein uptake at 500 uM over 20 mins relative to untreated-control; assay type: ADME, cell-based
T2 sequence (Q8VC69 whole entry): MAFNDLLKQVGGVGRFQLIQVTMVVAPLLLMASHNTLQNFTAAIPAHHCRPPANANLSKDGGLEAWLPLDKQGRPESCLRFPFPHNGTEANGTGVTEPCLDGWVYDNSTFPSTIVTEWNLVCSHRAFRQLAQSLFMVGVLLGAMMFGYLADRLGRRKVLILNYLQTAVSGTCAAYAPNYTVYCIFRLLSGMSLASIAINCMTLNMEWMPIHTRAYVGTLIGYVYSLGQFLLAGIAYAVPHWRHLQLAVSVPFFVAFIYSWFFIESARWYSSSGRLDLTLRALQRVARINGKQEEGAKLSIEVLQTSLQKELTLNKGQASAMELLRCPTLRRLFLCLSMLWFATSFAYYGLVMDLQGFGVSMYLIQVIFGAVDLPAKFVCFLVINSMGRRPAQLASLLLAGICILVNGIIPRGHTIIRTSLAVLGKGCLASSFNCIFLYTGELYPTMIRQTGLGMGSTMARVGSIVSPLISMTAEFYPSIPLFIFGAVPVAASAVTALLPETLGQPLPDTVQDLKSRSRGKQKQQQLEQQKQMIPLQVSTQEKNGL

[3] = molecular target: T3, Organic anion transporter 3 (Mus musculus, UniProt O88909); assay: Inhibition of mouse OAT3 expressed in CHO cells assessed as inhibition of fluorescein uptake at 500 uM over 20 mins relative to untreated-control; assay type: ADME, cell-based
T3 sequence (O88909 whole entry): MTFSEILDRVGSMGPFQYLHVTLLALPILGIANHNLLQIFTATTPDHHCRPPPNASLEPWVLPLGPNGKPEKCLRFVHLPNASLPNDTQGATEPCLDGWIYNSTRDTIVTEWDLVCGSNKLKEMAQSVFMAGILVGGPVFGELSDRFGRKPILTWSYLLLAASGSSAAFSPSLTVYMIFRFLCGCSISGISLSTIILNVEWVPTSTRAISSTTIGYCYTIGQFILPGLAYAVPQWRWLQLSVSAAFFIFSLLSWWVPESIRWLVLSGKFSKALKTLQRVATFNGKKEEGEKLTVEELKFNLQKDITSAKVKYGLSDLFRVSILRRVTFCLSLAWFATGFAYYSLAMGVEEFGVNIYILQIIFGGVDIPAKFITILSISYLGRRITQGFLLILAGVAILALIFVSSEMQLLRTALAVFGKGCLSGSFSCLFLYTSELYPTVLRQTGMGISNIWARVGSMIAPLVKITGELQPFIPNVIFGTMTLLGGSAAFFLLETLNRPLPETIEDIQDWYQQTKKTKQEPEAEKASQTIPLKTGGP

OAT3 [4] = molecular target: T4, OAT3 (Homo sapiens, UniProt Q8TCC7); assay: Inhibition of human OAT3 expressed in CHO cells assessed as inhibition of fluorescein uptake over 20 mins relative to untreated-control; assay type: ADME, cell-based; conditions: CHO cells expressing human OAT3, probe fluorescein
T4 sequence (Q8TCC7 whole entry): T1 sequence (Q8TCC7 whole entry)

[5] = molecular target: T1, Organic anion transporter 3; assay: Inhibition of human OAT3 using estrone-3-sulfate as substrate; assay type: ADME
OAT3 [6] = molecular target: T4, OAT3; assay: as §1; assay type: ADME, cell-based; conditions: CHO cells expressing human OAT3, probe fluorescein
[7] = molecular target: T3, Organic anion transporter 3; assay: Inhibition of mouse OAT3 expressed in CHO cells assessed as inhibition of fluorescein uptake at 1 mM over 20 mins relative to untreated-control; assay type: ADME, cell-based; conditions: 1000 µM
[8] = molecular target: T3, Organic anion transporter 3; assay: Inhibition of mouse OAT3 expressed in CHO cells assessed as inhibition of fluorescein uptake over 20 mins; assay type: ADME, cell-based
[9] = molecular target: T3, Organic anion transporter 3; assay: Inhibition of mouse OAT3 expressed in CHO cells assessed as inhibition of fluorescein uptake over 20 mins by Michaelis-Menten method; assay type: ADME, cell-based
[10] = molecular target: T1, Organic anion transporter 3; assay: Inhibition of human OAT3 expressed in CHO cells assessed as inhibition of fluorescein uptake over 20 mins by Michaelis-Menten method; assay type: ADME, cell-based
[11] = molecular target: T3, Organic anion transporter 3; assay: Inhibition of mouse OAT3 expressed in CHO cells assessed as inhibition of fluorescein uptake at 1 mM after 10 mins; assay type: ADME, cell-based; conditions: 1000 µM
[12] = molecular target: T1, Organic anion transporter 3; assay: Inhibition of human OAT3 expressed in CHO cells assessed as inhibition of fluorescein uptake at 1 mM over 20 mins relative to untreated-control; assay type: ADME, cell-based; conditions: 1000 µM

inhibition (INH) [1] | inhibition (INH) [2] | inhibition (INH) [3] | IC50 [8] | SMILES | other results
Not Active | Not Active | Not Active |  | CC1(C)S[C@@H]2[C@H](NC(=O)[C@H](N)c3ccccc3)C(=O)N2[C@H]1C(=O)O [AMPICILLIN] | 
Not Active | Not Active | Not Active |  | CC1(C)S[C@@H]2[C@H](NC(=O)[C@H](NC(=O)N3CCNC3=O)c3ccccc3)C(=O)N2[C@H]1C(=O)O [AZLOCILLIN] | 
Not Active |  | Not Active |  | CC1(C)S[C@@H]2[C@H](NC(=O)C(C(=O)O)c3ccccc3)C(=O)N2[C@H]1C(=O)O (some centres not stated) [CARBENICILLIN] | inhibition at 20 min (OAT3 [4]): 70%
Active | Not Active | Not Active |  | N[C@@H](C(=O)N[C@@H]1C(=O)N2C(C(=O)O)=C(Cl)CS[C@H]12)c1ccccc1 [CEFACLOR ANHYDROUS] | IC50 [5]: 120 µM
 |  | Not Active |  | CC1=C(C(=O)O)N2C(=O)[C@@H](NC(=O)[C@H](N)c3ccc(O)cc3)[C@H]2SC1 [CEFADROXIL] | inhibition at 20 min, 500 µM (OAT3 [6]): 20%; inhibition (INH) [7]: Not Active
Not Active | Active | Not Active | 105 µM | CO[C@@]1(NC(=O)CSCC#N)C(=O)N2C(C(=O)O)=C(CSc3nnnn3C)CS[C@@H]21 [CEFMETAZOLE] | 
Not Active |  | Not Active |  | CCN1CCN(C(=O)N[C@@H](C(=O)N[C@@H]2C(=O)N3C(C(=O)O)=C(CSc4nnnn4C)CS[C@H]23)c2ccc(O)cc2)C(=O)C1=O [CEFOPERAZONE] | 
Not Active |  | Not Active |  | CO/N=C(\C(=O)N[C@@H]1C(=O)N2C(C(=O)O)=C(COC(C)=O)CS[C@H]12)c1csc(N)n1 [CEFOTAXIME] | 
Not Active | Not Active | Not Active | 57 µM | CO[C@@]1(NC(=O)Cc2cccs2)C(=O)N2C(C(=O)O)=C(COC(N)=O)CS[C@@H]21 [CEFOXITIN] | 
Not Active | Not Active | Not Active |  | NC(=O)c1cc[n+](CC2=C(C(=O)O)N3C(=O)[C@@H](NC(=O)[C@@H](c4ccccc4)S(=O)(=O)[O-])[C@H]3SC2)cc1 [CEFSULODIN] | 
Not Active | Not Active | Not Active | 35.7 µM | CO/N=C(\C(=O)N[C@@H]1C(=O)N2C(C(=O)O)=C(CSC(=O)c3ccco3)CS[C@H]12)c1csc(N)n1 [CEFTIOFUR] | 
Not Active | Not Active | Not Active |  | CO/N=C(\C(=O)N[C@@H]1C(=O)N2C(C(=O)O)=C(COC(N)=O)CS[C@H]12)c1ccco1 [CEFUROXIME] | 
Not Active | Not Active |  |  | CC1=C(C(=O)O)N2C(=O)[C@@H](NC(=O)[C@H](N)c3ccccc3)[C@H]2SC1 [CEPHALEXIN ANHYDROUS] | 
Not Active |  | Not Active | 33.3 µM | CC(=O)OCC1=C(C(=O)O)N2C(=O)[C@@H](NC(=O)Cc3cccs3)[C@H]2SC1 [CEPHALOTHIN] | 
Not Active | Not Active | Not Active | 30.9 µM | Cc1onc(-c2ccccc2Cl)c1C(=O)N[C@@H]1C(=O)N2[C@@H]1SC(C)(C)[C@@H]2C(=O)O [CLOXACILLIN] | 
Active | Active | Active | 16.6 µM | Cc1onc(-c2c(Cl)cccc2Cl)c1C(=O)N[C@@H]1C(=O)N2[C@@H]1SC(C)(C)[C@@H]2C(=O)O [DICLOXACILLIN] | 
Not Active | Not Active | Not Active | 116 µM | COc1cccc(OC)c1C(=O)N[C@@H]1C(=O)N2[C@@H]1SC(C)(C)[C@@H]2C(=O)O [METHICILLIN] | 
Not Active | Not Active | Not Active | 34.9 µM | CCOc1ccc2ccccc2c1C(=O)N[C@@H]1C(=O)N2[C@@H]1SC(C)(C)[C@@H]2C(=O)O [NAFCILLIN] | 
Active |  |  | 89.4 µM | CC1(C)S[C@@H]2[C@H](NC(=O)Cc3ccccc3)C(=O)N2[C@H]1C(=O)O [PENICILLIN G] | 
Not Active | Not Active | Not Active | 48.6 µM | CC1(C)S[C@@H]2[C@H](NC(=O)COc3ccccc3)C(=O)N2[C@H]1C(=O)O [PENICILLIN V] | 
Not Active | Active | Not Active |  | CCN1CCN(C(=O)N[C@@H](C(=O)N[C@@H]2C(=O)N3[C@@H]2SC(C)(C)[C@@H]3C(=O)O)c2ccccc2)C(=O)C1=O [PIPERACILLIN] | 
Not Active |  | Not Active | 3.02 µM | CCCN(CCC)S(=O)(=O)c1ccc(C(=O)O)cc1 [PROBENECID] | inhibition (INH) [9]: Dose-dependent effect; inhibition (INH) [10]: Dose-dependent effect; inhibition (INH) [7]: Active; inhibition (INH) [11]: Active; inhibition (INH) [12]: Active
Not Active |  | Not Active | 233 µM | CC1(C)S[C@@H]2[C@H](NC(=O)[C@H](C(=O)O)c3ccsc3)C(=O)N2[C@H]1C(=O)O [TICARCILLIN] | 

SMILES | inhibition (INH) [1] | inhibition (INH) [2] | inhibition (INH) [3] | IC50 [8] | other results
CC1(C)S[C@@H]2[C@H](N)C(=O)N2[C@H]1C(=O)O | Not Active | Not Active | Not Active |  | 
C[C@H]1[C@H](NC(=O)/C(=N\OC(C)(C)C(=O)O)c2csc(N)n2)C(=O)N1S(=O)(=O)O [AZTREONAM] | Not Active | Not Active | Not Active |  | 
CC(C)(O/N=C(\C(=O)N[C@@H]1C(=O)N2C(C(=O)[O-])=C(C[n+]3ccccc3)CS[C@H]12)c1csc(N)n1)C(=O)O [CEFTAZIDIME] | Not Active | Not Active | Not Active |  | 
Cc1onc(-c2ccccc2)c1C(=O)N[C@@H]1C(=O)N2[C@@H]1SC(C)(C)[C@@H]2C(=O)O [OXACILLIN] | Active | Not Active | Active | 35 µM | 
